Source: PMC8474606 (Brain, Behavior, & Immunity - Health, 2020)

Assays:
Brain uptake index = format: in vivo, rat; conditions: data not shown
H+/OC antiporter = test: DPHM uptake in BMECs after inflammatory cytokine treatment; conditions: cytokine 0.1–30 ng/ml, 24 h; DPHM 30 μM, 30 s

Brain uptake of reference compound, control vs LPS rats (Brain uptake index) | Molecule | Effect on DPHM uptake into BMECs (H+/OC antiporter)
similar | O=C(O)Cc1ccccc1Nc1c(Cl)cccc1Cl [diclofenac] | –
– | IL-1β: recombinant human interleukin-1β | little effect
– | TNF-α | little effect
